Numbered stars: 1 amine (or outer) side, 2 acyl side, 3 side chain; on linkers, the order of the positions; unused ones are H or OH. Bridge positions count the residues as written; N and C are the ends. Square brackets hold non-standard residues; d marks the D form. Peptide text beside a SMILES is read from it. * marks the point of attachment. ξ: configuration not given here. X1 = N=C1NCCC([C@H](N[*:1])C(=O)[*:2])N1; ΔAla(Z-3-ureido) = NC(=O)N/C=C(\N)C(=O)O; ξβ3hOrn = NCCCC(N)CC(=O)*; Dap = NC[C@H](N)C(=O)O
system: Hepatotoxicity; experiment: Literature-mined public compounds from Greene et al multi-species hepatotoxicity modelling dataset

Compound | Hepatotoxicity
Cc1ccc(Cl)c(Nc2ccccc2C(=O)[O-])c1Cl.O.[Na+] [MECLOFENAMATE SODIUM] | HH: Evidence of human hepatotoxicity
CC(CN1c2ccccc2Sc2ccccc21)N(C)C.Cl (stereo not drawn) [PROMETHAZINE HYDROCHLORIDE] | NE: No evidence of hepatotoxicity in any species
CC(=O)O[C@]1(C(C)=O)CC[C@H]2[C@@H]3C=C(Cl)C4=CC(=O)[C@@H]5C[C@@H]5[C@]4(C)[C@H]3CC[C@@]21C [CYPROTERONE ACETATE] | AH: Evidence for animal hepatotoxicity but not tested in humans
NC(=O)OCC(COC(N)=O)c1ccccc1 [FELBAMATE] | HH: Evidence of human hepatotoxicity
Cl.Clc1cccc(Cl)c1NC1=NCCN1 [CLONIDINE HYDROCHLORIDE] | HH: Evidence of human hepatotoxicity
NCC1(CC(=O)O)CCCCC1 [GABAPENTIN] | NE: No evidence of hepatotoxicity in any species
Clc1ccc(COC(Cn2ccnc2)c2ccc(Cl)cc2Cl)cc1.O=[N+]([O-])O (stereo not drawn) [ECONAZOLE NITRATE] | NE: No evidence of hepatotoxicity in any species
CC(C)(Oc1ccc(C2CC2(Cl)Cl)cc1)C(=O)O (stereo not drawn) [CIPROFIBRATE] | HH: Evidence of human hepatotoxicity
Nc1ccc(S(=O)(=O)NC(=O)c2ccccc2)cc1 [SULFABENZAMIDE] | NE: No evidence of hepatotoxicity in any species
Cl.Cl.O=C1c2c(O)ccc(O)c2C(=O)c2c(NCCNCCO)ccc(NCCNCCO)c21 [MITOXANTRONE HYDROCHLORIDE] | HH: Evidence of human hepatotoxicity
CCN(CC)CCNC(=O)c1cc(Cl)c(N)cc1OC.Cl | HH: Evidence of human hepatotoxicity
NCCCC[C@H](N[C@@H](CCc1ccccc1)C(=O)O)C(=O)N1CCC[C@H]1C(=O)O [LISINOPRIL ANHYDROUS] | HH: Evidence of human hepatotoxicity
C=C[C@H]1C[N@@]2CC[C@H]1C[C@@H]2[C@@H](O)c1ccnc2ccc(OC)cc12 [QUINIDINE] | HH: Evidence of human hepatotoxicity
C[C@@H]1NC(=O)[C@@H](N)CNC(=O)[C@H](C2CCNC(=N)N2)NC(=O)/C(=C/NC(N)=O)NC(=O)[C@H](CNC(=O)CC(N)CCCN)NC1=O.N=C1NCCC([C@@H]2NC(=O)/C(=C/NC(N)=O)NC(=O)[C@H](CNC(=O)CC(N)CCCN)NC(=O)[C@H](CO)NC(=O)[C@@H](N)CNC2=O)N1.O=S(=O)(O)O.O=S(=O)(O)O (stereo partly drawn) [CAPREOMYCIN SULFATE] (H-[Dap]S[Dap](ξβ3hOrn)[ΔAla(Z-3-ureido)][X1]; lactam 1-C) | NE: No evidence of hepatotoxicity in any species
CC(COc1ccccc1)NC(C)C(O)c1ccc(O)cc1.Cl (stereo not drawn) [ISOXSUPRINE HYDROCHLORIDE] | NE: No evidence of hepatotoxicity in any species
Cl.Cl.OCCN1CCN(CC/C=C2/c3ccccc3Sc3ccc(C(F)(F)F)cc32)CC1 | NE: No evidence of hepatotoxicity in any species
CC(C)(C)NC[C@H](O)COc1nsnc1N1CCOCC1.O=C(O)/C=C\C(=O)O [TIMOLOL MALEATE] | HH: Evidence of human hepatotoxicity
CN1c2ccccc2C(NCCCCCCC(=O)O)c2ccc(Cl)cc2S1(=O)=O (stereo not drawn) [TIANEPTINE] | HH: Evidence of human hepatotoxicity
CCN(CC)CC(=O)Nc1c(C)cccc1C [LIDOCAINE] | NE: No evidence of hepatotoxicity in any species
CC(C)NCC(O)COc1cccc2[nH]ccc12 (stereo not drawn) [PINDOLOL] | NE: No evidence of hepatotoxicity in any species
COc1cc(C(=O)NS(=O)(=O)c2ccccc2C)ccc1Cc1cn(C)c2ccc(NC(=O)OC3CCCC3)cc12 [ZAFIRLUKAST] | HH: Evidence of human hepatotoxicity

Compound | Hepatotoxicity
CC(=O)[C@]1(O)Cc2c(O)c3c(c(O)c2[C@@H](O[C@H]2C[C@H](N)[C@H](O)[C@H](C)O2)C1)C(=O)c1ccccc1C3=O.Cl [IDARUBICIN HYDROCHLORIDE] | NE: No evidence of hepatotoxicity in any species
Nc1ccn([C@H]2CC[C@@H](CO)O2)c(=O)n1 [ZALCITABINE] | NE: No evidence of hepatotoxicity in any species
CCc1nn(CCCN2CCN(c3cccc(Cl)c3)CC2)c(=O)n1CCOc1ccccc1 [NEFAZODONE] | HH: Evidence of human hepatotoxicity
CCC(=O)OCC(=O)[C@@]1(OC(=O)CC)[C@@H](C)C[C@H]2[C@@H]3CCC4=CC(=O)C=C[C@]4(C)[C@@]3(Cl)[C@@H](O)C[C@@]21C [BECLOMETHASONE DIPROPIONATE] | NE: No evidence of hepatotoxicity in any species
CCN(CC)CCOc1ccc(/C(=C(/Cl)c2ccccc2)c2ccccc2)cc1.O=C(O)CC(O)(CC(=O)O)C(=O)O [ENCLOMIPHENE CITRATE] | HH: Evidence of human hepatotoxicity
O=C(Cc1cccs1)N[C@@H]1C(=O)N2C(C(=O)[O-])=C(C[n+]3ccccc3)CS[C@H]12 [CEPHALORIDINE] | AH: Evidence for animal hepatotoxicity but not tested in humans
Nc1ncn([C@@H]2O[C@H](CO)[C@@H](O)[C@H]2O)c(=O)n1 [AZACITIDINE] | HH: Evidence of human hepatotoxicity
CN1CCC(=C2c3ccccc3CCc3cccnc32)CC1.O=C(O)/C=C\C(=O)O.O=C(O)/C=C\C(=O)O [AZATADINE MALEATE] | HH: Evidence of human hepatotoxicity
CCCCc1nc(Cl)c(CO)n1Cc1ccc(-c2ccccc2-c2nn[nH]n2)cc1 [LOSARTAN] | HH: Evidence of human hepatotoxicity
COc1cccc(OC)c1C(=O)N[C@@H]1C(=O)N2[C@@H]1SC(C)(C)[C@@H]2C(=O)[O-].[Na+] | HH: Evidence of human hepatotoxicity
Nc1ccc(S(=O)(=O)c2ccc(N)cc2)cc1 [DAPSONE] | HH: Evidence of human hepatotoxicity
COc1cccc2c1C(=O)c1c(O)c3c(c(O)c1C2=O)C[C@@](O)(C(=O)CO)C[C@@H]3O[C@H]1C[C@H](N)[C@H](O)[C@H](C)O1.Cl [DOXORUBICIN HYDROCHLORIDE] | HH: Evidence of human hepatotoxicity
TRANSPLATIN | AH: Evidence for animal hepatotoxicity but not tested in humans
Cn1cnc([N+](=O)[O-])c1Sc1ncnc2nc[nH]c12 [AZATHIOPRINE] | HH: Evidence of human hepatotoxicity
CO[C@@]1(NC(=O)Cc2cccs2)C(=O)N2C(C(=O)O)=C(COC(N)=O)CS[C@@H]21 [CEFOXITIN] | HH: Evidence of human hepatotoxicity
Cn1c(=O)c2c(ncn2C)n(C)c1=O [CAFFEINE] | NE: No evidence of hepatotoxicity in any species
CC(C)NCC(O)COc1ccc(CC(N)=O)cc1 (stereo not drawn) [ATENOLOL] | NE: No evidence of hepatotoxicity in any species
CN(C)N=O [N-NITROSODIMETHYLAMINE] | AH: Evidence for animal hepatotoxicity but not tested in humans
Cl.N [AMMONIUM CHLORIDE] | NE: No evidence of hepatotoxicity in any species
Nc1nc2ccc(OC(F)(F)F)cc2s1 [RILUZOLE] | HH: Evidence of human hepatotoxicity
CN(C)CCN(Cc1cccs1)c1ccccn1 | HH: Evidence of human hepatotoxicity

Compound | Hepatotoxicity
CO/N=C(/C(=O)N[C@@H]1C(=O)N2C(C(=O)[O-])=C(CSc3nc(=O)c(O)nn3C)CS[C@H]12)c1csc(N)n1.[Na+] | HH: Evidence of human hepatotoxicity
COc1c(N2CCNC(C)C2)c(F)cc2c(=O)c(C(=O)O)cn(C3CC3)c12 (stereo not drawn) [GATIFLOXACIN] | WE: Weak evidence (<10 case reports) of human hepatotoxicity
O=c1[nH]c(=O)n([C@H]2C[C@H](O)[C@@H](CO)O2)cc1F [FLOXURIDINE] | HH: Evidence of human hepatotoxicity
Oc1c(Cl)cc(Cl)c(Cl)c1Cc1c(O)c(Cl)cc(Cl)c1Cl [HEXACHLOROPHENE] | HH: Evidence of human hepatotoxicity
CCOC(=O)C1(c2ccccc2)CCN(CCc2ccc(N)cc2)CC1.Cl [ANILERIDINE HYDROCHLORIDE] | NE: No evidence of hepatotoxicity in any species
Nc1nc(NC2CC2)c2ncn([C@H]3C=C[C@@H](CO)C3)c2n1 [ABACAVIR] | HH: Evidence of human hepatotoxicity
[Cl-].[Na+] [SODIUM CHLORIDE] | NE: No evidence of hepatotoxicity in any species
ClC(Cl)=C(Cl)C(Cl)=C(Cl)Cl [HEXACHLOROBUTADIENE] | AH: Evidence for animal hepatotoxicity but not tested in humans
CN(Cc1cnc2nc(N)nc(N)c2n1)c1ccc(C(=O)N[C@@H](CCC(=O)O)C(=O)O)cc1 [METHOTREXATE] | HH: Evidence of human hepatotoxicity
Cl.Nc1ccc(/N=N/c2ccccc2)c(N)n1 [PHENAZOPYRIDINE HYDROCHLORIDE] | HH: Evidence of human hepatotoxicity
CYANOCOBALAMIN | NE: No evidence of hepatotoxicity in any species
C[C@]12CC[C@@H]3c4ccc(O)cc4CC[C@H]3[C@@H]1CCC2=O [ESTRONE] | HH: Evidence of human hepatotoxicity
Cc1cc(NC(=O)C2=C(O)c3ccccc3S(=O)(=O)N2C)no1 [ISOXICAM] | NE: No evidence of hepatotoxicity in any species
CC(=O)O.O=C(NCC1CCCCN1)c1cc(OCC(F)(F)F)ccc1OCC(F)(F)F (stereo not drawn) [FLECAINIDE ACETATE] | HH: Evidence of human hepatotoxicity
Cc1ncc(CO)c(CO)c1O [PYRIDOXINE] | NE: No evidence of hepatotoxicity in any species
C=C(C)[C@H]1Cc2c(ccc3c2O[C@@H]2COc4cc(OC)c(OC)cc4[C@@H]2C3=O)O1 [ROTENONE] | AH: Evidence for animal hepatotoxicity but not tested in humans
C[C@H](CS)C(=O)N1CCC[C@H]1C(=O)O [CAPTOPRIL] | HH: Evidence of human hepatotoxicity
CCCC[C@@H](CC)COC(=O)c1ccccc1C(=O)OC[C@@H](CC)CCCC [BIS(2-ETHYLHEXYL)PHTHALATE] | AH: Evidence for animal hepatotoxicity but not tested in humans
O=C(O)c1cc(-c2ccc(F)cc2F)ccc1O [DIFLUNISAL] | HH: Evidence of human hepatotoxicity
CC(=O)O[C@]1(C(C)=O)CC[C@H]2[C@@H]3C[C@H](C)C4=CC(=O)CC[C@]4(C)[C@H]3CC[C@@]21C [MEDROXYPROGESTERONE ACETATE] | WE: Weak evidence (<10 case reports) of human hepatotoxicity
Cc1cc(C(C)(C)C)c(O)c(C(C)(C)C)c1 [BUTYLATED HYDROXYTOLUENE] | AH: Evidence for animal hepatotoxicity but not tested in humans
